Here are results for ten compounds from ChEMBL document CHEMBL5214916, “Enzyme inhibition as a potential therapeutic strategy to treat COVID-19 infection” (Bioorg Med Chem, 2021).

Data set [1] deals with Transmembrane protease serine 2 (Homo sapiens, UniProt O15393). Nature of the data set: Inhibition of TMPRSS2 (unknown origin) expressed in Escherichia coli BL21 (DE3) using H-D cyclohexylalanine-Pro-Arg-AM as substrate by Dixon method.
Data set [2] relates to Calu-3. The data set can be described thus: Cytotoxicity against human Calu-3 cells assessed as decrease in viability at 50 uM incubated for 48 hrs by MTT assay. Format: toxicity, cell-based. To be noted: calu-3, 48 h.
For data set [3], the system named is Influenza A virus. The data set can be described thus: Antiviral activity against human pandemic influenza virus A/Aichi/2/68 (H3N2) infected in human Calu-3 cells assessed as fold decrease in viral titre at 50 uM incubated for 24 hrs by plaque assay. It counts as functional.
The test system of data set [4] is Influenza A virus. Nature of the data set: Antiviral activity against human pandemic influenza virus A/Hamburg/5/09 (H1N1) infected in human Calu-3 cells assessed as fold decrease in viral titre at 10 uM incubated for 24 hrs by plaque assay. It counts as functional.
Data set [5] has as its system Influenza A virus. Nature of the data set: Antiviral activity against human pandemic influenza virus A/Aichi/2/68 (H3N2) infected in human Calu-3 cells assessed as fold decrease in viral titre at 10 uM incubated for 24 hrs by plaque assay. It counts as functional.
For data set [6], the system named is Influenza A virus. Nature of the data set: Antiviral activity against human pandemic influenza virus A/Hamburg/5/09 (H1N1) infected in human Calu-3 cells assessed as fold decrease in viral titre at 50 uM incubated for 24 hrs by plaque assay. Format: functional.
Data set [7] concerns the target T1, Angiotensin-converting enzyme (Homo sapiens, UniProt P12821). The data set can be described thus: Inhibition of recombinant human ACE assessed as maximum inhibition using Mca-RPGFSAFK (Dnp)-OH as substrate by fluorescence plate reader assay relative to control.
Data set [8] deals with T1, Angiotensin-converting enzyme. The data set can be described thus: Inhibition of ACE in human MNCs assessed as maximum inhibition using substrate Mca-RPGFSAFK (Dnp)-OH as substrate by fluorescence plate reader assay relative to control. The note with it: Mononuclear cell line. It counts as cell-based.
Data set [9] addresses T2, Angiotensin-converting enzyme 2 (Homo sapiens, UniProt Q9BYF1). Nature of the data set: Inhibition of recombinant human ACE2 assessed as maximum inhibition using 7- Mca-YVADAPK (Dnp) as substrate by fluorescence plate reader assay relative to control.
Target sequence in this assay (Q9BYF1 18-805 limits assumed): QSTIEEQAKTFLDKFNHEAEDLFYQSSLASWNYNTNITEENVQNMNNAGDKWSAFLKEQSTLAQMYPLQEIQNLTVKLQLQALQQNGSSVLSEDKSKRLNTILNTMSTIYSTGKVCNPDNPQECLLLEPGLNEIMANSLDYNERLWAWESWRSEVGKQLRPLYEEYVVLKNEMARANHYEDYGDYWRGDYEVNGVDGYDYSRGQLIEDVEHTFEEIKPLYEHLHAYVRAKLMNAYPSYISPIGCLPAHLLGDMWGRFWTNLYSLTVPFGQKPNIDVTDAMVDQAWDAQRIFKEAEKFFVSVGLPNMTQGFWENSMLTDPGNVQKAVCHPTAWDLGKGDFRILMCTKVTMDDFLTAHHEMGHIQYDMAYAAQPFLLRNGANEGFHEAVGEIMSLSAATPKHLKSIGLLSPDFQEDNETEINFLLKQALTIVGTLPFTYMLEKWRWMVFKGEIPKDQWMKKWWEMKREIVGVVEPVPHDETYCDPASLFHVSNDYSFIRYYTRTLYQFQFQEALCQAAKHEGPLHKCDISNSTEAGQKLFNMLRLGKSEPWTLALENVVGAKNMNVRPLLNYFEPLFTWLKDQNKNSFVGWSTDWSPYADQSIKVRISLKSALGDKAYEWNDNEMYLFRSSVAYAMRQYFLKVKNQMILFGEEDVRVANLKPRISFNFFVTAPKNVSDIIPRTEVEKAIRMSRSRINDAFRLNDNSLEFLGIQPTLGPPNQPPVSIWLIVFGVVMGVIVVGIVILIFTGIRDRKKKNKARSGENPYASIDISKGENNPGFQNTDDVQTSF
For data set [10], the target named is T2, Angiotensin-converting enzyme 2. Nature of the data set: Inhibition of recombinant human ACE2 using 7-Mca-YVADAPK (Dnp) as substrate by fluorescence plate reader assay.
Target sequence in this assay (Q9BYF1 whole entry): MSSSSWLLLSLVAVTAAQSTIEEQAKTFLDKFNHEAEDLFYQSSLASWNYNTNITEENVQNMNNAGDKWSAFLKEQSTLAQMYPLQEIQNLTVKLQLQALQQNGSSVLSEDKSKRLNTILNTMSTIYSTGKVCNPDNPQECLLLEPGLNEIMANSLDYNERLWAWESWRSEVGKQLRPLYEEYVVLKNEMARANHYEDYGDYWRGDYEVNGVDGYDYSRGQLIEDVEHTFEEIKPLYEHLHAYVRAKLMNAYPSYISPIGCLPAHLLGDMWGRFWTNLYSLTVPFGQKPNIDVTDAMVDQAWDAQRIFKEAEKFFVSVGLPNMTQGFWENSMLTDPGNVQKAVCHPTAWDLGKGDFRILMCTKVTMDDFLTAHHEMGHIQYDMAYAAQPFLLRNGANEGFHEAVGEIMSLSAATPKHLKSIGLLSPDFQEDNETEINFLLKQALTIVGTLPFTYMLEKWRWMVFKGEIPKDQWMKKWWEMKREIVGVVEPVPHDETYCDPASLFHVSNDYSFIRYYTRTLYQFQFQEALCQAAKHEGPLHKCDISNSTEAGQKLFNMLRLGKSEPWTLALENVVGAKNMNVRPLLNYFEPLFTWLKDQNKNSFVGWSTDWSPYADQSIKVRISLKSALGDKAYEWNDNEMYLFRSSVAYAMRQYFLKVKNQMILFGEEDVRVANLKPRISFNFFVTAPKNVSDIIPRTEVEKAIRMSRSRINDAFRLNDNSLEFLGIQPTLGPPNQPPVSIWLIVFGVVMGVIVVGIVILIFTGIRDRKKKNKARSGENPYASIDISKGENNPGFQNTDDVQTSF
Data set [11] deals with T1, Angiotensin-converting enzyme. The data set can be described thus: Inhibition of recombinant human ACE using Mca-RPGFSAFK (Dnp)- OH as substrate by fluorescence plate reader assay.
Data set [12] has as its target T2, Angiotensin-converting enzyme 2. Nature of the data set: Inhibition of ACE2 in human MNCs assessed as maximum inhibition using 7- Mca-YVADAPK (Dnp) as substrate by fluorescence plate reader assay relative to control. The note with it: Mononuclear cell line. It counts as cell-based.
Target sequence in this assay (Q9BYF1 18-805 limits assumed): as the sequence (Q9BYF1 18-805 limits assumed) above

T1 sequence (P12821 whole entry): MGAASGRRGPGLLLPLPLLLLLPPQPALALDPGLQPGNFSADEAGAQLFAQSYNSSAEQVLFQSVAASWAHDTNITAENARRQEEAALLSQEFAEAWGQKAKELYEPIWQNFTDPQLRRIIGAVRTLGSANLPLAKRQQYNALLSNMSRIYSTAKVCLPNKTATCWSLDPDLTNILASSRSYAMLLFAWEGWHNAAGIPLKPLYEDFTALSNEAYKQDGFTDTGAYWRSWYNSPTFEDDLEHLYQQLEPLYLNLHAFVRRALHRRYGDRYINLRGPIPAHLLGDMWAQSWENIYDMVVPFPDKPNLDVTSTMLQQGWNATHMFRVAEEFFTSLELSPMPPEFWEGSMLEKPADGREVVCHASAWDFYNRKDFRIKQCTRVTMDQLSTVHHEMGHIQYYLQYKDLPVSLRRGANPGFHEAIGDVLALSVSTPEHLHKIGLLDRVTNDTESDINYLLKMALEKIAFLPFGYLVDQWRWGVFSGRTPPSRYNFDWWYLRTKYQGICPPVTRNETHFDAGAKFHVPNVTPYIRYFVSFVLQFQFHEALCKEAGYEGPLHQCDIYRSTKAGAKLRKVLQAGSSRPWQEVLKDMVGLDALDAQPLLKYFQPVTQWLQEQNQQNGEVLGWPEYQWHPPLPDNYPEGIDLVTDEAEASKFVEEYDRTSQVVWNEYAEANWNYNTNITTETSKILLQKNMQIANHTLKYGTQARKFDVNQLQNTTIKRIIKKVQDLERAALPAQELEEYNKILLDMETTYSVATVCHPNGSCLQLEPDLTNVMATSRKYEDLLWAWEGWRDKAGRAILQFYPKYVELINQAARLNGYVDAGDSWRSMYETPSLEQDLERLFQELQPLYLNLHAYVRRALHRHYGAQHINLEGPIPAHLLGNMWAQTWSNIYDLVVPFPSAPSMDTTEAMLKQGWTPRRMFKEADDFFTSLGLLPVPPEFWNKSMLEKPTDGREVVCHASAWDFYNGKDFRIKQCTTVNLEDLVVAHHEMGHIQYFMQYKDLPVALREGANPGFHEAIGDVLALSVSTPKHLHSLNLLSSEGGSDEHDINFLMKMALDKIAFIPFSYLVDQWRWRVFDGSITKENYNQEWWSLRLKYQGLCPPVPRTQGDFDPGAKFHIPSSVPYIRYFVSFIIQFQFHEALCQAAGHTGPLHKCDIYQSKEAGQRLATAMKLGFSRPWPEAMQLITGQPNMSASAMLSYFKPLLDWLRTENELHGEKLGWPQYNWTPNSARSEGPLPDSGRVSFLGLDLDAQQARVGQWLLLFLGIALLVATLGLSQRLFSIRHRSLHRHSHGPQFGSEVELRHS
Chain of Transmembrane protease serine 2 (O15393 1-255 limits assumed): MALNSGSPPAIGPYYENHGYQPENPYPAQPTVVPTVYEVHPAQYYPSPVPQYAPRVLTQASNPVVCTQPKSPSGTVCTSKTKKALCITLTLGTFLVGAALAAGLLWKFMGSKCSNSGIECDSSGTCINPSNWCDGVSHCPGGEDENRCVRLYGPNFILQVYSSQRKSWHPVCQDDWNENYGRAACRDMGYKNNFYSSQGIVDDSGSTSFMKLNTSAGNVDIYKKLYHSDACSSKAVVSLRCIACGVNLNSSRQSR
Chain of Transmembrane protease serine 2 (O15393 256-492 limits assumed): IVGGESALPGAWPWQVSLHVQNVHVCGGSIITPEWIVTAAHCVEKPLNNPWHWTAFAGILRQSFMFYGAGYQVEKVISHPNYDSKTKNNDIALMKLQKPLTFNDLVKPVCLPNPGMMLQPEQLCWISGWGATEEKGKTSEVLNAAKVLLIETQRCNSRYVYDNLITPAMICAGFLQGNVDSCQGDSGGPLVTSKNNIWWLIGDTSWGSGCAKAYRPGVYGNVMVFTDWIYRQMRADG

Consider `COc1ccc(-c2cccc(S(=O)(=O)N[C@@H](Cc3cccc(C(=N)N)c3)C(=O)N3CCC(NC(=O)NC4CCCCC4)CC3)c2)c(OC)c1`, for which affinity in data set [1] was put at a Ki of 3 nM. For the same compound, in [2], the Activity stood at 20%.

In turn, `CNC(=O)NCCC1CCN(C(=O)[C@H](Cc2cccc(C(=N)N)c2)NS(=O)(=O)c2cccc(-c3ccc(Cl)cc3Cl)c2)CC1` came in with a Ki in [1] of 3 nM.

The compound `N=C(N)c1cccc(C[C@H](NS(=O)(=O)c2cccc(-c3ccc(Cl)cc3Cl)c2)C(=O)N2CCC(CCN)CC2)c1` had a Ki in [1] of 0.9 nM. The “fold change (FC)” value in [3] is recorded as 100; in data set [4] it was 10; in data set [5], 100; in data set [6] it was 100.

In the case of `CNC(=O)NCCC1CCN(C(=O)[C@H](Cc2cccc(C(=N)N)c2)NS(=O)(=O)c2cccc(-c3ccc(OC)cc3OC)c2)CC1`, the Ki in data set [1] came out at 3 nM.

In the case of `CNC(=O)CCCC1CCN(C(=O)[C@H](Cc2cccc(C(=N)N)c2)NS(=O)(=O)c2cccc(-c3ccc(Cl)cc3Cl)c2)CC1`, in data set [2], the Activity is on record as 20%.

Take `CC(C)CC(N[C@@H](Cc1cncn1Cc1cc(Cl)cc(Cl)c1)C(=O)O)C(=O)O` (mixture of isomers): the Imax in data set [7] is 48%; in data set [8] it was 22%; in data set [9], 94%; in data set [12], 34%. Also, the IC50 was 3.16 nM in data set [10] and 39800 nM in data set [11].

On to `CC(C)C[C@@H](N[C@@H](Cc1cncn1Cc1cc(Cl)cc(Cl)c1)C(=O)O)C(=O)O`, for which the Imax in data set [7] was 49%; in data set [8], 20%; in data set [9] it was 93%; in [12], 35%. The IC50 in data set [10] is 1.26 nM; in data set [11], 39800 nM.

In the case of `CC(C)C[C@H](N[C@@H](Cc1cncn1Cc1cc(Cl)cc(Cl)c1)C(=O)O)C(=O)O` [ORE-1001], the Imax in data set [7] was 46%; in [8], 34%; in [9], 80%; in data set [12], 63%. In addition, the pIC50 in [10] is 8.01; in data set [11], 5.

Regarding `N=C(N)c1cccc(C[C@H](NS(=O)(=O)c2cccc(-c3ccc(Cl)cc3Cl)c2)C(=O)N2CCC(NC(=O)NC3CCCCC3)CC2)c1`, the Ki in data set [1] was determined as 3 nM.

Take `COc1ccc(-c2cccc(S(=O)(=O)N[C@@H](Cc3cccc(C(=N)N)c3)C(=O)N3CCC(CCN)CC3)c2)c(OC)c1`: the Ki in data set [1] came to 1 nM.
